The source of these data is US9393221B2, “Methods and compounds for reducing intracellular lipid storage” (THE GENERAL HOSPITAL CORPORATION, priority 2011, dated 2016).

Structures can show the parent of a compound that is named as a salt.

Assay [1] has as its system ATGL-KO iPSCs. The assay can be described thus: High throughput iPSC chemical screening, Oil Red O (ORO) lipid accumulation. It is filed as cell-based, mouse. The note with it: for Rank in normalized ORO score from screen: glycolytic switch compounds; for Z-score: normalized ORO level vs DMSO-treated cells, compound present during 7 days differentiation, 96-well, negative = decrease in lipid accumulation.

The test system of the next assay is NLSD-M human iPSCs. As to the kind of experiment: TG content in differentiated human iPSCs. It is filed as cell-based. The following applies: differentiated human NLSD-M iPSCs (FIG. 9b).
The test system of a further assay is ATGL-KO mice. The assay can be described thus: 18-week observer-blinded placebo-controlled treatment study. The note with it: for overall triglyceride content in the heart: 14 weeks old ATGL-KO mice (FIG. 8d). It is filed as in vivo, mouse. An excerpt:
FIGS. 8a-8f show graphs of the in vivo validation of the drug hit efficacy on ATGL-KO mice. (FIG. 8a) Kaplan-Meier survival plot of ATGL-KO mice treated with Mefloquine (N=15), Perhexyline (N=15), Vinpocetin low dose (N=15), Vinpocetin high dose (N=15), or water alone (N=15) (FIG. 8b) Contractile function of wild type mice treated with Mefloquine (Mef), Perhexyline (Per), Vinpocetin (Vin), and water (None) at 3 weeks of age before drug treatment (black) and at 18 weeks of age (white) after drug treatment. (FIG. 8c) Contractile function of ATGL-KO mice treated with Mef, Per, Vin, and water at 3 weeks of age before drug treatment (black) and at 10 (gray), and 14 (white) weeks of age after drug treatment. (FIG. 8d) Measurement of triglyceride content in hearts of 14 weeks old wild type (WT) and ATGL-KO (KO) mice after treatment with the indicated drugs. V (H)—vinpocetin high dose, V (L)—vinpocetin low dose. (FIG. 8e) Measurement of triglyceride content in the liver, lung, and kidney of WT mice (gray) and ATGL-KO mice treated with Per (red), Mef (green), V (H) (blue), V (L) (orange), or water (black). (FIG. 8f) Quantitative PCR analysis of metabolic gene expression in the hearts of 14 weeks old ATGL-KO mice treated with water (black), Per (red), and Mef (green) and in the hearts of age-matched WT mice (gray).
We designed an 18-week observer-blinded placebo-controlled study treating both wild type and ATGL-KO mice with mefloquine, perhexyline, and high and low doses of vinpocetin starting from 3 weeks after birth. We assess the survival of each animal throughout the entire treatment course. We also measured the cardiac function of each animal before treatment and at 10 and 14 weeks of age. […] The effect of these drugs on triglyceride content was observed variably in other tissues such as liver, lung, and kidney (FIG. 8e). While these drugs were able to elicit a similar reduction in triglyceride content, they appear to do so by recruiting genes involved in distinct pathways. (FIG. 8f)

In assay [2] the test system is ATGL-KO iPSCs. The assay can be described thus: Cellular metabolism assay (OCR, ECAR). The following applies: for extracellular acidification rate (ECAR) / oxygen consumption rate (OCR): day 9 differentiated cells pre-treated overnight at screen concentration; for OCR/ECAR ratio after addition of CCCP: pre-treated cells (FIG. 7d). It is filed as cell-based, mouse. As for the experimental part: (§1) FIGS. 7a-7g depict that glycolytic switch inducers modulate the metabolic profile of WT and KO iPSCs. Measurement of (FIG. 7a) oxygen consumption rate (OCR) and (FIG. 7b) extracellular acidification rate (ECAR) in WT and KO iPSCs at day 10 of differentiation following compound pre-treatment for 16 h. Data are expressed as mean±s.d. (n=10 samples, with 3 measurements each) relative to DMSO-treated WT cells. (*P<0.001, student's t-test between compound-treated and DMSO ? treated cells of same type. **P<0.001, student's t-test between DMSO-treated WT and KO cells). Measurement of OCAR/ECAR ratios for drug-treated (FIG. 7c) WT and (FIG. 7d) KO iPSCs following treatment carbonyl cyanide m-chlorophenyl hydrazone (CCCP), at the time indicated (arrow). Antimycin, an electron transport chain inhibitor, was added to each well at the end of the assay to verify that mitochondrial function was intact in drug-treated cells. A schematic model of ATGL ? mediated lipid metabolism in shown for (FIG. 7e) WT cells, (FIG. 7f) KO cells, and (FIG. 7g) drug-treated KO cells.
(§2) We next investigated whether the top-scoring compounds with reported glycolytic switch properties could in fact modulate the OCR and ECAR of differentiated WT and KO iPSCs. We pre-treated day 9 differentiated cells overnight with mefloquine, vinpocetine, and perhexyline at their screen concentrations (Table 3) and measured the changes in OCR and ECAR. […] This is consistent with the increased adaptation to glucose in ATGL-KO cells.
(§3) To determine whether the glycolytic switch inducers work through common or distinct mechanisms, we next examined how the responses of ATGL-KO and WT cells to challenge with carbonyl cyanide m-chlorophenyl hydrazone (CCCP) differed upon pre-treatment with glycolytic switch inducers. CCCP is an uncoupler of the mitochondrial hydrogen gradient that induces maximal cellular oxidative respiration (Goldsby et al., 1963). […] This was due entirely to an increase in OCAR, as the ECAR levels remained relatively unchanged (data not shown).
(§4) ATGL-KO and WT iPSCs were differentiated as EBs to day 9, then collagenase-dissociated and re-plated onto gelatin-coated XF24 plates (Seahorse Bioscience, Andover, Mass.) at a density of 250,000 cells/well. Following an overnight incubation (12-16 hrs) in differentiation medium supplemented with drugs or DMSO, the cells were acclimated to atmospheric CO2 in drug-containing buffer-free medium (Wu, M. et al., 2007) for 1 hour at 37° C. Oxygen consumption rates (OCR) and extracellular acidification rates (ECAR) were measured on the Seahorse Extracellular Flux 24 Analyzer using previously established procedures (Gohil et al., 2010; Wu, M. et al., 2007) and normalized against cell number as assessed by the resazurin assay described above. In all wells, antimycin, an electron transport chain inhibitor, was added at the end of the assay to ascertain that mitochondrial function in the drug-treated cells had been intact and that the OCR and ECAR results were not due to direct mitochondrial toxicity effects from drug treatment.

A further assay concerns WT iPSCs. As to the kind of experiment: Cellular metabolism assay (OCR, ECAR). The format is cell-based, mouse. The following applies: for extracellular acidification rate (ECAR) / oxygen consumption rate (OCR): day 9 differentiated cells pre-treated overnight at screen concentration; for OCR/ECAR ratio after addition of CCCP: pre-treated cells (FIG. 7c). Here is the method: as §1, §2, §3, §4

`OC(c1cc(C(F)(F)F)nc2c(C(F)(F)F)cccc12)C1CCCCN1` (centres unmarked) [Mefloquine hydrochloride]: in the assay with ATGL-KO iPSCs [1], the “Rank in normalized ORO score from screen” value is listed as 3 and the Z-score was −2.3573. The “intracellular lipid content (TG content)” value with NLSD-M human iPSCs is recorded as “significantly reduce intracellular lipid content”. Moreover, the “cardiac function (echocardiography)” value in the assay on ATGL-KO mice (14 weeks of age) is given as “echocardiographic improvements in cardiac function”. In the assay with ATGL-KO mice, the “overall triglyceride content in the heart” value is reported as “reduction in the overall triglyceride content in the heart”. For the same molecule, in the assay with ATGL-KO iPSCs [2], the “extracellular acidification rate (ECAR)” value is on record as “increased ECAR”, the “oxygen consumption rate (OCR)” value is given as “decreased OCR” and the “OCR/ECAR ratio after addition of CCCP” value is recorded as “increased the ratio of OCAR/ECAR”. Also, in the assay with WT iPSCs, the “extracellular acidification rate (ECAR)” value is “increased ECAR”, the “oxygen consumption rate (OCR)” value is given as “decreased OCR” and the “OCR/ECAR ratio after addition of CCCP” value was “increased the ratio of OCAR/ECAR”.

`CCOC(=O)C1=C[C@]2(CC)CCCN3CCc4c(n1c1ccccc41)[C@@H]32` [Vinpocetine]: in the assay with ATGL-KO iPSCs [1], the “Rank in normalized ORO score from screen” value amounted to 2 and the Z-score was −2.4105. Further, the “overall triglyceride content in the heart” value in the assay on ATGL-KO mice is “reduction in the overall triglyceride content in the heart”. In the assay on ATGL-KO iPSCs [2], the “extracellular acidification rate (ECAR)” value was “increased ECAR”, the “oxygen consumption rate (OCR)” value is “decreased OCR” and the “OCR/ECAR ratio after addition of CCCP” value was “increased the ratio of OCAR/ECAR”. In the assay with WT iPSCs, the “extracellular acidification rate (ECAR)” value is “increased ECAR”, the “oxygen consumption rate (OCR)” value was “decreased OCR” and the “OCR/ECAR ratio after addition of CCCP” value was “increased the ratio of OCAR/ECAR”.
